In general, IC50 refers to the concentration needed to halve the response being measured. One may read the Ki as the equilibrium dissociation constant of an inhibitor or competing ligand from its target.

The text below walks through data of PMC8540617, “Dual Targeting of PTP1B and Aldose Reductase with Marine Drug Phosphoeleganin: A Promising Strategy for Treatment of Type 2 Diabetes” (Marine Drugs, 2021).

The target in assay [1] is T1, human recombinant AR (Homo sapiens, UniProt P15121).
T1 construct: made in house; host or cells: E. coli BL21(DE3) pLysS
Put plainly: Reversibility of AR inhibition by dialysis. It is filed as biochemical. As for the experimental part:
(§1) The mixture was then extensively dialysed on Amicon ultrafiltration membrane (cut-off 3 KDa) against 10 mM sodium phosphate buffer, pH 7.0. After dialysis, the enzyme activity was again measured using 0.8 mM L-idose as substrate and compared to that of a mixture treated in the same conditions but in the absence of inhibitor. In order to evaluate the reversibility of the inhibitory action on PTP1B, 8 mU of PTP1B was incubated in the presence of a saturating concentration of PE (3 µM) and then incubated at 37 °C for 1 h. After this time, an aliquot of solution was withdrawn and extensively diluted in the assay buffer containing 2.5 mM of p-NPP. Residual activity of PTP1B was determined by calculating the amount of pNP released by measuring the absorbance of solution at 400 nm.

For assay [2], the target named is T1, human recombinant AR. Briefly: AR activity / inhibition assay (NADPH oxidation, L-idose as substrate). The assay is classed as biochemical. The protocol: AR activity was determined at 37 °C, as previously described, evaluating the decrease in absorbance at 340 nm linked to NADPH oxidation using a Biochrom Libra S60 spectrophotometer. The standard assay mixture contained 0.25 M sodium phosphate buffer pH 6.8, 0.18 mM NADPH, 2.4 M ammonium sulphate, 0.5 mM EDTA, and 4.7 mM D,L-glyceraldehyde. One unit of enzyme activity is the amount that catalyses the conversion of 1 μmol of substrate/min in the above assay conditions. For AR inhibition studies, L-idose (at the indicated concentrations) was used as substrate in the conditions described above.
(§2) PE was dissolved in DMSO at a final concentration of 10 mM and added to the assay mixture containing 10 mU of purified AR (84 nM on the basis of a 34 KDa molecular weight) or 8 mU purified PTP1B (52 nM on the basis of a 36 KDa molecular weight). The reaction was started by the addition of the substrate. The DMSO concentration in the assays for AR determination was kept constant at 0.7 % (v/v) in order to avoid effects on AR activity. The inhibitory effect of PE was determined by measuring the reaction rates in the presence of a fixed substrate concentration (2.5 mM p-NPP and 0.8 mM L-idose for PTP1B and AR, respectively) and increasing inhibitor concentrations (at least 14-16 different concentrations). The IC50 (the inhibitor concentration able to decrease the enzymatic activity up to 50%) values were determined by nonlinear regression analysis using Prism GraphPad 6.0 (GraphPad Software, San Diego, CA, USA), fitting experimental data to the following equation: Vi/V0 = Max − Min/1 + x/IC50^slope + Min where Vi/V0 represents the relative activity calculated in presence of each inhibitor concentration; “Max” and “Min” represent the maximum and minimum value of the activity, respectively; “x” is the concentration of the inhibitor; and “slope” represents the slope of the curve in the transition zone.
(§3) In order to define the mechanism of action of PE, reaction rates were measured in assay mixtures containing different L-idose concentrations (between 0.8 and 6 mM) in the case of AR, and different p-NPP concentrations (between 0.5 and 25 mM) in the case of PTP1B, in the absence and in the presence of different PE concentrations. Data were analysed by Lineweaver–Burk plots. The apparent dissociation constants Ki’ (for the ESI complex) and Ki (for the EI complex) were determined from secondary plots of 1/^appVmax and ^appKM/^appVmax as a function of the inhibitor concentration, respectively.

For assay [3], the system named is HepG2 cells. Put plainly: Analysis of the insulin signalling pathway (Western blot of IR and Akt phosphorylation). The assay is classed as cell-based. The note with it: HepG2, PE 25 µM combined with insulin 10 nM, 30 minutes. As for the experimental part:
To evaluate whether PE is able to improve the insulin signalling pathway in vitro, we analysed the effect of the compound on HepG2 cell line. For this purpose, we treated HepG2 cells with PE (25 µM final concentration) for 30 minutes in the presence or absence of insulin (10 nM). After treatment, cells were lysed and cellular extracts were analysed to evaluate the phosphorylation status of insulin receptor (IR) and Akt, a kinase downstream IR (Figure 7).
Figure 7 Effect of PE on the insulin signalling pathway. Panel A: Western blot image; Panel B: quantitation of Western blot carried out using Kodak MI software. Data shown were normalized with respect to the control sample. All tests were carried out in triplicate. […]
In order to evaluate the effect of PE on the insulin signalling pathway, HepG2 cells were seeded in 35-mm culture dishes and, after 24 hours, were incubated for 30 minutes with starvation medium (DMEM supplemented with 2 mM glutamine, 100 U/mL penicillin, and 100 μg/mL streptomycin) containing 25 μM of PE and/or 10 nM insulin (Humalog, lispro insulin). […] Cellular extracts were boiled for 5 minutes, and then an aliquot (20 µg of protein) was analysed by SDS-PAGE and Western blot to evaluate both total and phosphorylated expression levels of Akt and IR. β-actin was used as a reference protein to normalise protein loading.

The target in assay [4] is T2, human recombinant PTP1B (1-302) (Homo sapiens, UniProt P18031).
T2 construct: The human recombinant PTP1B (1-302 aa) and LMW-PTP (full-length) were expressed as fusion proteins; polyhistidine (N); made in house; host or cells: E. coli BL21(DE3) pLysS
T2 sequence (P18031 1-302): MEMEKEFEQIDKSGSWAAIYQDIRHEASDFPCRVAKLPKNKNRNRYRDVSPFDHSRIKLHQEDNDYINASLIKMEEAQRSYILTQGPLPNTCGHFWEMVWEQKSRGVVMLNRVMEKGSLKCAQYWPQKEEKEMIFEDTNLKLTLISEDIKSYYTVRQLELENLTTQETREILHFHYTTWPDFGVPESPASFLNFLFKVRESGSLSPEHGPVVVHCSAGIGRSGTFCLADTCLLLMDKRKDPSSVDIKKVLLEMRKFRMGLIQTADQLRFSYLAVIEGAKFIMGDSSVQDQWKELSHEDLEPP
Briefly: Reversibility of PTP1B inhibition, dilution assay. The assay is classed as biochemical. The protocol:
as §1
Figure S3. Determination of IC50 value for PE. An aliquot of PTP1B (8 mU) was incubated in the presence of increasing PE concentration in the assay buffer containing 2.5 mM pNPP. After 30 minutes, the reactions were stopped by adding 2 mL of 0.1 M KOH solution. The amount of p-NP released was determined using a spectrophotometer, measuring the absorbance of samples at 400 nm, using a 1cm path length cuvette. All tests were carried out in triplicate. Data obtained were normalized respect to control test and fitted using an opportune equation (see Material and method […]
Figure S4. Dilution assay. […]

In assay [5] the target is T2, human recombinant PTP1B (1-302). Briefly: PTP1B activity / inhibition assay (p-NPP hydrolysis). It is filed as biochemical. As for the experimental part:
PTP1B activity was determined as previously described. Briefly, each assay was started by adding an aliquot of human recombinant PTP1B (1-302) in the assay buffer (0.075 M β,β-dimethylglutarate pH 7.0, containing 1 mM EDTA, 0.1 mM DTT, and p-nitrophenylphosphate (p-NPP)). All reactions were performed at 37 °C in a final volume of 1 mL. After the incubation time, the reactions were stopped by adding 2 mL of 0.1 M KOH to the samples. The concentration of the released p-nitrophenol was determined by measuring the absorbance at 400 nm in a 1 cm pathlength cuvette. One unit of enzyme activity is the amount that catalyses the conversion of 1 μmol of substrate/min in the above assay conditions.
as §2, §3
Figure S3. Determination of IC50 value for PE. […] The amount of p-NP released was determined using a spectrophotometer, measuring the absorbance of samples at 400 nm, using a 1cm path length cuvette. […]

`CCCCCCCCCCCCCCC(OP(=O)(O)O)C(O)CCC(O)C(O)CCC(O)CCCCCCC(=O)NCC(=O)O` (centres unmarked) [PE, phosphoeleganin]: in assay [1], the “Reversibility of AR inhibition” value is “reversible inhibitor”. Further, the “AR enzyme activity recovered after removal of inhibitor by extensive dialysis” value in assay [1] (10 mU AR incubated 90 min at 0 °C with PE 3 mM, then dialysed, 0.8 mM L-idose) is listed as 100%. The 50% inhibitory concentration (IC50) worked out at 28.7 ± 1.1 µM in assay [2] (0.8 mM L-idose, pH 6.8, 37 °C, 10 mU AR) and 1.3 ± 0.04 µM in assay [5] (2.5 mM p-NPP, pH 7.0, 37 °C, 8 mU PTP1B). In assay [2] (Lineweaver–Burk analysis), the “Type of inhibition of AR” value is given as “mixed inhibitor”. For the same compound, the “K'i (ESI complex) for AR” value in assay [2] (secondary plot of 1/appVmax vs PE concentration, L-idose 0.8-6 mM) was 36 ± 1 µM. Besides, the Ki stood at 47 ± 1 µM in assay [2] (secondary plot of appKM/appVmax vs PE concentration, L-idose 0.8-6 mM, read-out: Ki (EI complex) for AR) and 0.7 ± 0.1 µM in assay [5] (secondary plot of appKM/appVmax vs PE concentration, p-NPP 0.5-25 mM, read-out: Ki (EI complex) for PTP1B). The Akt phosphorylation level entry in assay [3] is on record as “significant increase”. In assay [3], the IR phosphorylation level result is reported as “significant increase”. Further, the “Reversibility of PTP1B inhibition” value in assay [4] is “reversible inhibitor”. For the same compound, the “PTP1B activity recovered after dilution” value in assay [4] (incubation with saturating PE (3 µM) at 37 °C, then dilution in buffer with 2.5 mM p-NPP) is reported as “almost completely”. In assay [5] (Lineweaver–Burk analysis), the “Type of inhibition of PTP1B” value is on record as “pure non-competitive inhibitor”. Further, in assay [5] (secondary plot of 1/appVmax vs PE concentration, p-NPP 0.5-25 mM), the “K'i (ESI complex) for PTP1B” value was 0.7 ± 0.1 µM.
